Legend:
[1] = biological target: T1, acyl CoA: cholesterol acyltransferase (ACAT-EC 2.3.1.26) (Oryctolagus cuniculus, UniProt A0A5F9CPP4); assay: ACAT inhibition in microsomes from atherosclerotic rabbit thoracic aortas (Table 2); assay type: biochemical
T1 construct: microsomal preparations from atherosclerotic rabbit thoracic aorta (intimamedia); from tissue; host or cells: microsomes of atherosclerotic rabbit thoracic aorta (intima-media)
T1 sequence (A0A5F9CPP4 1-555): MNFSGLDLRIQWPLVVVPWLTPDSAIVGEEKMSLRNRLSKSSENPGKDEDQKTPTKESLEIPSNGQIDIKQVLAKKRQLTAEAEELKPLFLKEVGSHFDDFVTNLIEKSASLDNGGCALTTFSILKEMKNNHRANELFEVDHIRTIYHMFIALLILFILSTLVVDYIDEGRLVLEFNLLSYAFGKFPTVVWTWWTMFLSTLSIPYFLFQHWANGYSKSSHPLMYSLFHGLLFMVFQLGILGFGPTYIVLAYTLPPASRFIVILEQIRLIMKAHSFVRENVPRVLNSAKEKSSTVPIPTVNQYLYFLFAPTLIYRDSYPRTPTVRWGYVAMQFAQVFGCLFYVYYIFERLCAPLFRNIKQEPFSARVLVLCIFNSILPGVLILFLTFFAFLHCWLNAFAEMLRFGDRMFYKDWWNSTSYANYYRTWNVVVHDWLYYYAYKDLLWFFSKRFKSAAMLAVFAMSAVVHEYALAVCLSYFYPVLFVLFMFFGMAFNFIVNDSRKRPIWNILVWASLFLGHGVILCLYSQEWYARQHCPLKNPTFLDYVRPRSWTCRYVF

ACAT = conditions: rabbit arterial microsomes; Hudson H., Day A., Atherosclerosis (1982) 45, 109; cited from earlier work
[2] = Serum lipid lowering in male rats on standard diet (Table 1, activity as % variation vs. controls); assay type: in vivo, Iva:SDIV (SPF) male rats; conditions: rat, 50 mg/kg/os, 4 days by stomach tube, * p ≤ 0.05, ** p ≤ 0.01; for Triglycerides, activity as % variation vs. controls: serum triglycerides; for Tot. Chol., activity as % variation vs. controls: total serum cholesterol
Method: The activity of compounds of this invention was evaluated on Groups of Iva:SDIV (SPF) male rats fed standard diet (Altromin^R).
The compounds were suspended in "Methocel" (methyl cellulose, a 0.5% pseudosolution in water) and administered by stomach tube for 4 days.
Groups of animals were treated with the suspending agent only (control groups).
The total serum cholesterol was determined with the method of Allain C. C. (Clin. Chem. 20, 470, 1974).
The serum triglycerides were determined with the method of Spayd R. N. (Clin. Chem. 24, 1343, 1978).
The total serum HDL cholesterol was determined according to Demacker P. N. M. [Clin. Chem., 23, 1238 (1977)].
W. - J. Amer. Stat. Ass., 50, 1096 (1955)].

Row | Compound | IC50 ([1]; microsomes from atherosclerotic rabbit thoracic aortas (intimamedia), limits p = 0.95) [nM] | potency in ACAT inhibition relative to Bezafibrate (times more potent) ([1]; ratio of IC50 values, vs. Bezafibrate) | inhibitory activity in vitro (in words) (ACAT) | HDL/LDL + VLDL Chol. ratio, activity as % variation vs. controls [2] | LDL + VLDL Chol., activity as % variation vs. controls [2] [%] | Triglycerides, activity as % variation vs. controls [2] [%] | Tot. Chol., activity as % variation vs. controls [2] [%]
1 | CCCC1Oc2ccc(OCCCC(C)(C)C(=O)OCC)cc2C=C1c1nccn1C (stereo not drawn) [FCE 25184, ethyl 5-[3-(1-methyl-1H-imidazol-2-yl)-2-n-propyl-2H-1-benzopyran-6-yl]oxy-2,2-dimethylpentanoate] | 1060 | about 500 times |  |  |  |  | 
2 | CC(C)(Oc1ccc(CCNC(=O)c2ccc(Cl)cc2)cc1)C(=O)O [Bezafibrate] |  |  | inhibitory activity in vitro (rabbit arterial microsomes) has been already demonstrated |  |  |  | 
3 | CCOC(=O)C(C)(C)Oc1ccc(Cl)cc1 [Clofibrate, reference compound] |  |  |  | +18% | -19 | -22 | -11
4 | CCOC(=O)C(C)(C)CCCOc1ccc2c(c1)C=C(c1nccn1C)C(C)O2 (stereo not drawn) [FCE 25086, ethyl 5-[2-methyl-3-(1-methyl-1H-imidazol-2-yl)-2H-1-benzopyran-6yl]oxy-2,2-dimethylpentanoate] |  |  |  | +135% | -55 | -53 | -14
5 | CCOC(=O)C(C)(C)CCCOc1ccc2c(c1)C=C(c1nccn1C)CC2 [FCE 25390, ethyl 5-[5,6-dihydro-7-(1-methyl-1H-imidazol-2-yl)naphthalen-2yl]oxy-2,2-dimethylpentanoate] |  |  |  | +96% | -59 | -58 | -36

Source: patent US4985440A, “Hypolipidaemic imidazol-2-yl-derivatives of bicyclic compounds” (priority 1988, dated 1991)
